Earlier results as cited in patent US9242010B2, “Living copolymer-protein/peptide hybrids for biomedical applications” (Research Foundation of The City University of New York, priority 2008, dated 2016).

How the values were obtained:
[1] = background statement
avidin/streptavidin = conditions: interaction of avidin/streptavidin with biotin

Which water solubility [1] does the source give for `CC(=O)O[C@H]1C(=O)[C@@]2(C)[C@H]([C@H](OC(=O)c3ccccc3)[C@]3(O)C[C@H](OC(=O)[C@H](O)[C@@H](NC(=O)c4ccccc4)c4ccccc4)C(C)=C1C3(C)C)[C@]1(OC(C)=O)CO[C@@H]1C[C@@H]2O` [taxol] here?
Its water solubility is “not water soluble”.

Which Ka (avidin/streptavidin) does the source give for `O=C(O)CCCC[C@@H]1SC[C@@H]2NC(=O)N[C@@H]21` [biotin] here?
Its Ka is > 10^14.

With `COc1cc(/C=C/C(=O)CC(=O)/C=C/c2ccc(O)c(OC)c2)ccc1O` [curcumin, (1E,6E)-1,7-bis(4-hydroxy-3-methoxyphenyl)hepta-1,6-diene 3,5-dione] as the compound, how does the “water and plasma solubility” value [1] read?
Its value is “poor”.
